This note sets out measurements from article PMC8725837, “2-Arylquinolines as novel anticancer agents with dual EGFR/FAK kinase inhibitory activity: synthesis, biological evaluation, and molecular modelling insights” (Journal of Enzyme Inhibition and Medicinal Chemistry, 2021).

The structures appear in SMILES notation. Bounds are passed on as bounds.

Data set [1] concerns MDMBA-231 breast cancer cell line. Description: MTT antiproliferative assay, MDMBA-231. The format is cell-based. To be noted: 10 µM, 24 h. How it is done:
(§1) At least, three independent experiments were performed.
In general terms: Tetrazolium assays rely on reduction of a dye to a coloured formazan, in cell work by metabolically active cells.

Data set [2] has as its system MCF-7 breast cancer cell line. Description: MTT antiproliferative assay, MCF-7. It counts as cell-based. Conditions: 10 µM, 24 h. How it is done:
as §1

Data set [3] has as its system HeLa cervical cancer cell line. Description: MTT antiproliferative assay, HeLa. It counts as cell-based. Conditions: 10 µM, 24 h. How it is done: as §1
The target in another data set is T1, FRK (Homo sapiens, UniProt P42685).
T1 construct: purchased Invitrogen/Life Technologies
Description: Z`-LYTE kinase profiling, FRK. The format is biochemical.

In a further data set the target is T2, IGF-1R (Homo sapiens, UniProt P08069).
T2 construct: purchased Invitrogen/Life Technologies
T2 sequence (P08069 31-1367): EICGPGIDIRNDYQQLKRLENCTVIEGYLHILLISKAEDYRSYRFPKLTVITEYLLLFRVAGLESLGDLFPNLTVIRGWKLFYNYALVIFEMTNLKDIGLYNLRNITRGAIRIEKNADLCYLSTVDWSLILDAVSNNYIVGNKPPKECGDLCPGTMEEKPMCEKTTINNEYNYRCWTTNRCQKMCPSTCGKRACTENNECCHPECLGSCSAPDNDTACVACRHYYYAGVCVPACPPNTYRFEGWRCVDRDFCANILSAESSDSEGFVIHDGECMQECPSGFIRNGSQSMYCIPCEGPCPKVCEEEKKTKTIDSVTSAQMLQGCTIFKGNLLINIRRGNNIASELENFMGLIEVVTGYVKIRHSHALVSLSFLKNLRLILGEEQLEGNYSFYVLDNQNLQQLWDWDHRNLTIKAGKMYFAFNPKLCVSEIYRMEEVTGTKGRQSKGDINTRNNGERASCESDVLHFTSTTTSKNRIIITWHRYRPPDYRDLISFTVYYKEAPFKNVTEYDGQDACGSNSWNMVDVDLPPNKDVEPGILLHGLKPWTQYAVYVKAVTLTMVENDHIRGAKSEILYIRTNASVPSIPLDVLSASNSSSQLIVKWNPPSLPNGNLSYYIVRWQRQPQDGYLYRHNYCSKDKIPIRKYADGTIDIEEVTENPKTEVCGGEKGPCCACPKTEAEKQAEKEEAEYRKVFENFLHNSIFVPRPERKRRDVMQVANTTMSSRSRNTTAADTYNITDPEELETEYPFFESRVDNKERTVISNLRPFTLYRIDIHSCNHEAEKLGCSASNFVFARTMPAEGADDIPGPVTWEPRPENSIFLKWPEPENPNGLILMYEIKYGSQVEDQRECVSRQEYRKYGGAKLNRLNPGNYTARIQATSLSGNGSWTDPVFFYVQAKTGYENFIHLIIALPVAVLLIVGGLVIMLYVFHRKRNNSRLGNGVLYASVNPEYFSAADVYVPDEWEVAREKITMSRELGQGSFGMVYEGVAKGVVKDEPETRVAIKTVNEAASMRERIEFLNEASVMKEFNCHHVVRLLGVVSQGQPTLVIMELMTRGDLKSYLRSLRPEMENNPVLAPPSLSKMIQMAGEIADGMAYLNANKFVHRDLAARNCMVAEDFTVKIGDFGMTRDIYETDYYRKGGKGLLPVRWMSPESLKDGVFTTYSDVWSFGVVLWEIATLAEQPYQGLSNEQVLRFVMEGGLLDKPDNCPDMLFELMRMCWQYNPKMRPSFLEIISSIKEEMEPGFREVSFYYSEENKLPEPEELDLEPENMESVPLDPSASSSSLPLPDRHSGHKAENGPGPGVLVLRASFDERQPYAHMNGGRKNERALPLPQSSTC
Description: Z`-LYTE kinase profiling, IGF-1R. The format is biochemical.

The next data set addresses T3, BTK (Homo sapiens, UniProt Q06187).
T3 construct: purchased Invitrogen/Life Technologies
Description: Z`-LYTE kinase profiling, BTK. It counts as biochemical.

For the next data set, the target named is T4, c-Src (Homo sapiens, UniProt P12931).
T4 construct: purchased Invitrogen/Life Technologies
T4 sequence (P12931 whole entry): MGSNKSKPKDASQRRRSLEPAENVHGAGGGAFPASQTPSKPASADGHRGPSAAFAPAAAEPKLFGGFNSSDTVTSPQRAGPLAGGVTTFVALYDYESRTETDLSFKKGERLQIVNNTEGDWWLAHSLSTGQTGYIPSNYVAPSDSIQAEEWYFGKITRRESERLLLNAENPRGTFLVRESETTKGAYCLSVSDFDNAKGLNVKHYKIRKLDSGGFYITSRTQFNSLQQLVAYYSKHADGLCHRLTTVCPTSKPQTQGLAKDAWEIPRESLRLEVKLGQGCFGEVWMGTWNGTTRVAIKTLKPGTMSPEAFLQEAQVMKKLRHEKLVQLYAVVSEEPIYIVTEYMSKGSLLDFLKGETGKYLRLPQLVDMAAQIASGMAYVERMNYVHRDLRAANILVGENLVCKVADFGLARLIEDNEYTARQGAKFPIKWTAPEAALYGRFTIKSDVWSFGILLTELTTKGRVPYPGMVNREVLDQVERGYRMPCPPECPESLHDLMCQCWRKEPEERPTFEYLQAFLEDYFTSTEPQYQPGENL
Description: Z`-LYTE kinase profiling, c-Src. The format is biochemical.

A further data set addresses T5, VEGFR-1 (Homo sapiens, UniProt P17948).
T5 construct: purchased Invitrogen/Life Technologies
Description: Z`-LYTE kinase profiling, VEGFR-1. The format is biochemical.

A further data set deals with T6, VEGFR-2 (Homo sapiens, UniProt P35968).
T6 construct: purchased Invitrogen/Life Technologies
T6 sequence (P35968 20-1356): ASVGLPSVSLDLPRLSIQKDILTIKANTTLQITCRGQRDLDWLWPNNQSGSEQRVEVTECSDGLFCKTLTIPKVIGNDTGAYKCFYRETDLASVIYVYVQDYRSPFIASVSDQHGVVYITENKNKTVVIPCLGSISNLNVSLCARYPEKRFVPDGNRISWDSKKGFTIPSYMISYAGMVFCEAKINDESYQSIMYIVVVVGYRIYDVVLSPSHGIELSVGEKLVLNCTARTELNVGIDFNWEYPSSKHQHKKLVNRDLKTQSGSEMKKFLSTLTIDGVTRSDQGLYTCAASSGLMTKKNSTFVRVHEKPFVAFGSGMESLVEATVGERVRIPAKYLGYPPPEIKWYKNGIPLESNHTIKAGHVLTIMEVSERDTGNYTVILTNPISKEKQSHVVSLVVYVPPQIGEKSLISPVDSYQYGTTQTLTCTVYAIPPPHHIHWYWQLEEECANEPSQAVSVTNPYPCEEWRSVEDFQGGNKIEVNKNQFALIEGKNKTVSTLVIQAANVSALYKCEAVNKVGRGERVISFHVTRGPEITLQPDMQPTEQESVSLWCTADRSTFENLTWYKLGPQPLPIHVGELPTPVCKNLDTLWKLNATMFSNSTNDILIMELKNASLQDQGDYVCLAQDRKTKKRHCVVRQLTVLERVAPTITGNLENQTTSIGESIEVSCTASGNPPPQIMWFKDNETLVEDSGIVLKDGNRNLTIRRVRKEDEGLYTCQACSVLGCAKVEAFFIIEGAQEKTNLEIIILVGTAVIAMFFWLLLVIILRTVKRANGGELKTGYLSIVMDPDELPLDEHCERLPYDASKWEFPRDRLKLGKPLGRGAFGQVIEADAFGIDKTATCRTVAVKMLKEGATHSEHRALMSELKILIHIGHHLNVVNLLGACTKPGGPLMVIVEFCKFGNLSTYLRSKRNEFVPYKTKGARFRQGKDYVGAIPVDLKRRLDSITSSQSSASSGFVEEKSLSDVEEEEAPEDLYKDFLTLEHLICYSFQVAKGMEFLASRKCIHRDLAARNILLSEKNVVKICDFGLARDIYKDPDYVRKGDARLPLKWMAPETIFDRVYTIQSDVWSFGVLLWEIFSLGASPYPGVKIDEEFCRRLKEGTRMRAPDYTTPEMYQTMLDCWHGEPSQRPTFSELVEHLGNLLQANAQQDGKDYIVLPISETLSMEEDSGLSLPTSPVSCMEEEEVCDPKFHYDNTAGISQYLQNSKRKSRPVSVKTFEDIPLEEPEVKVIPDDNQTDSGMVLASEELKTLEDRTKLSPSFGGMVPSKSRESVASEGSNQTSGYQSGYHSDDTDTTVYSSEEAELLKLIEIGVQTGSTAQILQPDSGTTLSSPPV
Description: Z`-LYTE kinase profiling, VEGFR-2. The format is biochemical.

Another data set deals with T7, HER-2 (Homo sapiens, UniProt P04626).
T7 construct: purchased Invitrogen/Life Technologies
Description: Z`-LYTE kinase profiling, HER-2. The format is biochemical.

Data set [4] concerns DLD-1 colorectal cancer cell line. Description: MTT antiproliferative assay, DLD-1. To be noted: for GI% DLD1: 10 µM, 24 h, MTT; for IC50: Homo sapiens, DLD-1, 24 h, read-out: IC50 DLD1 (half maximal growth inhibitory concentration).
The subject of data set [5] is HCT-116 colorectal cancer cell line. Description: MTT antiproliferative assay, HCT-116. Conditions: for GI% HCT-116: 10 µM, 24 h, MTT; for IC50: Homo sapiens, HCT-116, 24 h, read-out: IC50 HCT-116 (half maximal growth inhibitory concentration).
Description: After the incubation of the tested compounds for 24 h, the percent growth inhibition (GI%) was calculated.
Cells were seeded at 1 × 10^4 cells/well and cultured overnight in a 96-well plate. […] Then, 150 µl DMSO was used to solubilise MTT formazan crystals. Finally, the plates were shaken, and the optical density was determined at 570 nm using ELISA plate reader. At least, three independent experiments were performed. Percentage of growth inhibition was determined as (1-[OD of treated cells/OD of control cells]). […] The IC50 values were calculated using Prism v0.8 software (GraphPad Software Inc., La Jolla, CA).
A further data set deals with FAK (Homo sapiens, UniProt Q05397). Description: Z`-LYTE kinase inhibitory assay, FAK.
Another data set concerns the target EGFR (Homo sapiens, UniProt P00533). Description: Z`-LYTE kinase inhibitory assay, EGFR.
For a further data set, the target named is T8, recombinant human TOP1 (Homo sapiens, UniProt P11387).
T8 sequence (P11387 1-765): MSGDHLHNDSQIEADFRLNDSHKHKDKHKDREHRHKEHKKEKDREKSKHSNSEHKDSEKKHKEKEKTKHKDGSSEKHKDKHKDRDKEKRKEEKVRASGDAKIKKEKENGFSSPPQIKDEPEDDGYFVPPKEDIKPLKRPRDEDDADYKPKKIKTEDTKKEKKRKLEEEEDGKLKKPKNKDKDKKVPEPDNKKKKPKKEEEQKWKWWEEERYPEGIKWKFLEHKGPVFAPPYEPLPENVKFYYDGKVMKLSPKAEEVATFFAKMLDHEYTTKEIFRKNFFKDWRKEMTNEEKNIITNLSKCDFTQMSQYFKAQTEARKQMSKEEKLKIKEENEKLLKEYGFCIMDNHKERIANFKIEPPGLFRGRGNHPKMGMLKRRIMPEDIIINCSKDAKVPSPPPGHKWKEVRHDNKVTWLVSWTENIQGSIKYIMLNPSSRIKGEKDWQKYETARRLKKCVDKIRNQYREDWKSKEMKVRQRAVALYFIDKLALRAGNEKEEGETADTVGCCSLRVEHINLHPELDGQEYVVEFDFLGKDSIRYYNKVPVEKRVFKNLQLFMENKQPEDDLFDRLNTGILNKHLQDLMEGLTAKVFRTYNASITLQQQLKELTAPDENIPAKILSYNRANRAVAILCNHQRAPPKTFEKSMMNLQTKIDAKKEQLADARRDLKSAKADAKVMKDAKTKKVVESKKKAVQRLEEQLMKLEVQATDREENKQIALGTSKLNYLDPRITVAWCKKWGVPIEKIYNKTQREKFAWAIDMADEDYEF
Description: Topoisomerase I-mediated DNA cleavage assay. To be noted: tested at 0.1, 1, 10, 100 µM.

T3 sequence (Q06187 whole entry): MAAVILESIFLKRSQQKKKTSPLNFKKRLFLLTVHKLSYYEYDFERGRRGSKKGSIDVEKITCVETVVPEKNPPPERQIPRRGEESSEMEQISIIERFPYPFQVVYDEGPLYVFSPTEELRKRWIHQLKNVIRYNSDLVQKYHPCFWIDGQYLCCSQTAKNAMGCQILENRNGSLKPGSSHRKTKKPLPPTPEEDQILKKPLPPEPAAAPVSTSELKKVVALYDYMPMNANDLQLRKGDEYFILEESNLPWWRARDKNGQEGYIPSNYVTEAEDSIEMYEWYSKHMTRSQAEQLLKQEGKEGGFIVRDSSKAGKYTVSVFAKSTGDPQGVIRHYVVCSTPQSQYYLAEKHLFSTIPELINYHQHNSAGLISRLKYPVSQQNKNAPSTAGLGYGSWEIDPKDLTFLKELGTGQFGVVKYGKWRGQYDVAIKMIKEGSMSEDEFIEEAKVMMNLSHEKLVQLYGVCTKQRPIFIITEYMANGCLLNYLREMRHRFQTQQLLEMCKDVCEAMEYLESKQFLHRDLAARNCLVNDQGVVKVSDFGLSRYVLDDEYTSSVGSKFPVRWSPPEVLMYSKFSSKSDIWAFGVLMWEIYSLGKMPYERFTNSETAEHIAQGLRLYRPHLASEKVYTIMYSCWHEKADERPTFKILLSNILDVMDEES
Chain of EGFR (P00533 25-1210): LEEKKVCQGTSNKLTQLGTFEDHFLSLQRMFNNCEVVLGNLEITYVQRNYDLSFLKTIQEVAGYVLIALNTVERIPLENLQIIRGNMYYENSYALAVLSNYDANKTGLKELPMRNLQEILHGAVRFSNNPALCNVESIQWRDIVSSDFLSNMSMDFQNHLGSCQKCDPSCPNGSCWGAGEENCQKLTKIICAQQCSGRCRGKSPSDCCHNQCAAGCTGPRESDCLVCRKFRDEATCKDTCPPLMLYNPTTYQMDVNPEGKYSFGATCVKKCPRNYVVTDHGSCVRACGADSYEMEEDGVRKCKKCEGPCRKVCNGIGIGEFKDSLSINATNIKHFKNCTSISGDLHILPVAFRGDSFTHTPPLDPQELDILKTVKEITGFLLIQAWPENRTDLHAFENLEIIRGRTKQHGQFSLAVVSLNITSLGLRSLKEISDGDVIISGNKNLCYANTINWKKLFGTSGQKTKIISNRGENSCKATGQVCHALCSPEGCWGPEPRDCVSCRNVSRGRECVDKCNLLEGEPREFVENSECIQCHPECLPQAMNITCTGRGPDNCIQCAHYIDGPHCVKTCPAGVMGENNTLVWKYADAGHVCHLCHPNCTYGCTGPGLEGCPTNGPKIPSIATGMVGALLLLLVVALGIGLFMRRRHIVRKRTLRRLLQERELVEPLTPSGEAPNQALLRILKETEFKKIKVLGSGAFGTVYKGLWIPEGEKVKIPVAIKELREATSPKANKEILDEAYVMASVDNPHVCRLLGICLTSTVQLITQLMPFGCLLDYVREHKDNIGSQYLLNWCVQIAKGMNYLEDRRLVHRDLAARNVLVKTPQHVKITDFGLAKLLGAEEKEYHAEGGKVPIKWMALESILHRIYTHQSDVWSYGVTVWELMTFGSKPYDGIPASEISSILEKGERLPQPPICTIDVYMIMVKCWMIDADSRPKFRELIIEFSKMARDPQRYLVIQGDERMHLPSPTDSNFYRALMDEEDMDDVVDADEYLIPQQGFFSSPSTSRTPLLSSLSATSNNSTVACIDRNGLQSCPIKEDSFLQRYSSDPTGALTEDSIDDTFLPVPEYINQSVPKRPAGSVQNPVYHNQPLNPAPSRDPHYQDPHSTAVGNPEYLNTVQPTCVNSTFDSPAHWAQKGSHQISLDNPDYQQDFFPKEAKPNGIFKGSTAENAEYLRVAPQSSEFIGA
Description for recombinant human TOP1: Radiolabeled DNA was incubated with recombinant human TOP1 in 20 µL reaction buffer (10 mmol/L Tris-HCl, pH 7.5, 50 mmol/L KCl, 5 mmol/L MgCl2, 0.1 mmol/L EDTA, and 15 µg/mL BSA) at 30 °C for 20 min in the presence of the indicated drug concentrations. Reactions were terminated by adding SDS (0.5% final concentration) followed by the addition of two volumes of loading dye (80% formamide, 10 mmol/L sodium hydroxide, 1 mmol/L sodium EDTA, 0.1% xylene cyanol, and 0.1% bromophenol blue). Aliquots of reaction mixtures were subjected to 20% denaturing PAGE. Gels were dried and visualised by using PhosphorImager and Image Quant software (Molecular Dynamics).

For the molecule `CN1CCN(CCCOc2cc(-c3ccc(C(F)(F)F)cc3)nc3ccccc23)CC1` [10a, 4-(3-(4-methylpiperazin-1-yl)propoxy)-2-(4-(trifluoromethyl)phenyl)quinoline], the melting point – broadly, the temperature, or range, at which the solid turns liquid – is 110 to 112 °C. The “GI% MDMBA-231” value in [1] is given as 37.15%. Further, the “GI% MCF-7” value in [2] came out at 14.26%. In addition, the “GI% Hela” value in [3] stood at 25.64%. The same molecule gave an IC50 on FRK of 8910 nM. The IC50 against IGF-1R came out at 198 nM. On BTK, this molecule yielded an IC50 of 4760 nM. At c-Src, this molecule showed an IC50 of 1030 nM. The IC50 against VEGFR-1 was determined as 4390 nM. Also, the IC50 against VEGFR-2 turned out to be 8550 nM. For the same molecule, the IC50 against HER-2 worked out at 1020 nM. Moreover, in [4], the “GI% DLD1” value worked out at 22.51% and the IC50 was more than 100000 nM. In addition, in [5], the “GI% HCT-116” value is 18.64% and the IC50 was more than 100000 nM. This molecule also yielded an IC50 against FAK of 298.7 ± 1.94 nM. On EGFR, the IC50 is 244 ± 8.41 nM. Moreover, on recombinant human TOP1, the “TOP1 inhibitory activity (semiquantitative score relative to 1 µM CPT)” value was determined as 0.

Regarding `FC(F)(F)c1ccc(-c2cc(OCCCNC3CCCCC3)c3ccccc3n2)cc1` [10b, N-(3-((2-(4-(trifluoromethyl)phenyl)quinolin-4-yl)oxy)propyl)cyclohexanamine], the melting point lay in the range of 68 to 70 °C. In addition, the “GI% MDMBA-231” value in data set [1] turned out to be 45.35%. The “GI% MCF-7” value in [2] came out at 64.81%. Besides, the “GI% Hela” value in data set [3] is on record as 55.49%. In addition, the IC50 against FRK worked out at 4370 nM. At IGF-1R, this molecule showed an IC50 of 5740 nM. The same molecule gave an IC50 against BTK of 2980 nM. For the same molecule, at c-Src, the IC50 came to 7780 nM. For the same molecule, the IC50 against VEGFR-1 came out at 8510 nM. On VEGFR-2, the IC50 came to 8680 nM. This molecule also came in with an IC50 against HER-2 of 598 nM. Moreover, in data set [4], the “GI% DLD1” value turned out to be 35.72% and the IC50 is 40300 ± 2090 nM. Besides, in data set [5], the “GI% HCT-116” value worked out at 24.10% and the IC50 was more than 100000 nM. At FAK, this molecule displayed an IC50 of 165 ± 5.37 nM. Further, on EGFR, the IC50 was found to be 180 ± 9.12 nM. In addition, the “TOP1 inhibitory activity (semiquantitative score relative to 1 µM CPT)” value at recombinant human TOP1 stood at 0.

Turning to `Clc1ccc(-c2cc(OCCCn3ccnc3)c3cc4c(cc3n2)OCO4)cc1` [12a, 8-(3-(1H-imidazol-1-yl)propoxy)-6-(4-chlorophenyl)-[1,3] dioxolo[4,5-g]quinoline], the melting point fell in the range of 146 to 148 °C. Also, the “GI% MDMBA-231” value in data set [1] is 4.98%. In addition, the “GI% MCF-7” value in [2] turned out to be 11.72%. In data set [3], the “GI% Hela” value is 22.79%. Moreover, the IC50 against FRK stood at 734 nM. The IC50 at IGF-1R was determined as 5370 nM. The molecule further gave an IC50 at BTK of 196 nM. This molecule returned an IC50 on c-Src of 55.3 nM. This molecule came in with an IC50 on VEGFR-1 of 1760 nM. Besides, the IC50 against VEGFR-2 turned out to be 48.3 nM. The IC50 against HER-2 was 34.8 nM. Moreover, in data set [4], the “GI% DLD1” value was found to be 21.25% and the IC50 was more than 100000 nM. In addition, in data set [5], the “GI% HCT-116” value is 16.25% and the IC50 is more than 100000 nM. At FAK, this molecule gave an IC50 of 225 ± 14 nM. At EGFR, this molecule registered an IC50 of 125 ± 7.94 nM. For the same molecule, at recombinant human TOP1, the “TOP1 inhibitory activity (semiquantitative score relative to 1 µM CPT)” value was “−/+ (−/+: 0–25% 1 µM CPT)”.

`Clc1ccc(-c2cc(OCCCN3CCOCC3)c3cc4c(cc3n2)OCO4)cc1` [12b, 6-(4-chlorophenyl)-8-(3-morpholinopropoxy)-[1,3]dioxolo [4,5-g]quinoline] displayed a melting point of 153 to 155 °C. Besides, in data set [1], the “GI% MDMBA-231” value is listed as 14.28%. Moreover, the “GI% MCF-7” value in data set [2] is on record as 64.38%. For the same molecule, in data set [3], the “GI% Hela” value is given as 25.39%. This molecule displayed an IC50 against FRK of 1130 nM. Also, the IC50 on IGF-1R was found to be 7160 nM. On BTK, this molecule gave an IC50 of 213 nM. In addition, the IC50 at c-Src came out at 42.3 nM. The IC50 against VEGFR-1 was 5990 nM. The molecule also displayed an IC50 on VEGFR-2 of 27 nM. The molecule further registered an IC50 against HER-2 of 27.3 nM. In data set [4], the “GI% DLD1” value was determined as 72.95% and the IC50 worked out at 8360 ± 1080 nM. Further, in data set [5], the “GI% HCT-116” value was found to be 31.28% and the IC50 came to 14400 ± 3690 nM. Besides, the IC50 against FAK was found to be 70.9 ± 3.16 nM. In addition, the IC50 against EGFR amounted to 95.4 ± 2.05 nM. Also, on EGFR (from IC50 values), the “fold decreased activity than Gefitinib, EGFR” value came out at 2 fold. Besides, at recombinant human TOP1, the “TOP1 inhibitory activity (semiquantitative score relative to 1 µM CPT)” value is listed as “−/+ (−/+: 0–25% 1 µM CPT)”.
